Test results as given in the NIST ThermoML archive (doi:10.1021/je900916e).
Numbers after ± are expanded uncertainties.

Test: cn = amount concentration of the nth substance listed, in mol/dm3
Conditions: 101 kPa, Liquid, Advanced Condctivity Orion 162A

N.O=C(O)C(F)(F)C(F)(F)C(F)(F)C(F)(F)C(F)(F)C(F)(F)C(F)(F)F [ammonium perfluorooctanoate] + O
Conditions	electrical conductivity [S/m]
288.15 K, c1 = 0.002632	0.019 ± 0.0001
288.15 K, c1 = 0.005195	0.0351 ± 0.0001
288.15 K, c1 = 0.007692	0.051 ± 0.0001
288.15 K, c1 = 0.01013	0.0665 ± 0.0001
288.15 K, c1 = 0.0125	0.0805 ± 0.0002
288.15 K, c1 = 0.01481	0.0943 ± 0.0002
288.15 K, c1 = 0.01707	0.1074 ± 0.0002
288.15 K, c1 = 0.01928	0.1198 ± 0.0002
288.15 K, c1 = 0.02143	0.1318 ± 0.0003
288.15 K, c1 = 0.02353	0.1429 ± 0.0003
288.15 K, c1 = 0.02558	0.1533 ± 0.0003
288.15 K, c1 = 0.02759	0.163 ± 0.0003
288.15 K, c1 = 0.02955	0.1691 ± 0.0003
288.15 K, c1 = 0.03146	0.174 ± 0.0004
288.15 K, c1 = 0.03333	0.1785 ± 0.0004
288.15 K, c1 = 0.03516	0.1828 ± 0.0004
288.15 K, c1 = 0.03696	0.187 ± 0.0004
288.15 K, c1 = 0.03957	0.1926 ± 0.0004
288.15 K, c1 = 0.04211	0.1982 ± 0.0004
288.15 K, c1 = 0.04456	0.2036 ± 0.0004
288.15 K, c1 = 0.04694	0.209 ± 0.0004
288.15 K, c1 = 0.05	0.2155 ± 0.0004
288.15 K, c1 = 0.05294	0.2216 ± 0.0004
288.15 K, c1 = 0.05577	0.2275 ± 0.0005
293.15 K, c1 = 0.002632	0.021 ± 0.0001
293.15 K, c1 = 0.005195	0.0402 ± 0.0001
293.15 K, c1 = 0.007692	0.0582 ± 0.0001
293.15 K, c1 = 0.01013	0.0753 ± 0.0002
293.15 K, c1 = 0.0125	0.092 ± 0.0002
293.15 K, c1 = 0.01481	0.1078 ± 0.0002
293.15 K, c1 = 0.01707	0.1224 ± 0.0003
293.15 K, c1 = 0.01928	0.1364 ± 0.0003
293.15 K, c1 = 0.02143	0.1498 ± 0.0003
293.15 K, c1 = 0.02353	0.1625 ± 0.0003
293.15 K, c1 = 0.02558	0.1735 ± 0.0004
293.15 K, c1 = 0.02759	0.1815 ± 0.0004
293.15 K, c1 = 0.02955	0.1888 ± 0.0004
293.15 K, c1 = 0.03146	0.1942 ± 0.0004
293.15 K, c1 = 0.03333	0.1995 ± 0.0004
293.15 K, c1 = 0.03516	0.2045 ± 0.0004
293.15 K, c1 = 0.03696	0.209 ± 0.0004
293.15 K, c1 = 0.03957	0.216 ± 0.0004
293.15 K, c1 = 0.04211	0.222 ± 0.0004
293.15 K, c1 = 0.04536	0.231 ± 0.0005
293.15 K, c1 = 0.04848	0.239 ± 0.0005
293.15 K, c1 = 0.05149	0.247 ± 0.0005
293.15 K, c1 = 0.05437	0.2545 ± 0.0005
298.15 K, c1 = 0.002817	0.0241 ± 0.0001
298.15 K, c1 = 0.005556	0.0457 ± 0.0001
298.15 K, c1 = 0.008219	0.0665 ± 0.0001
298.15 K, c1 = 0.01081	0.0848 ± 0.0002
298.15 K, c1 = 0.01333	0.1033 ± 0.0002
298.15 K, c1 = 0.01579	0.1221 ± 0.0003
298.15 K, c1 = 0.01818	0.1411 ± 0.0003
298.15 K, c1 = 0.02051	0.1577 ± 0.0003
298.15 K, c1 = 0.02278	0.1735 ± 0.0004
298.15 K, c1 = 0.025	0.1884 ± 0.0004
298.15 K, c1 = 0.02716	0.199 ± 0.0004
298.15 K, c1 = 0.02927	0.2067 ± 0.0004
298.15 K, c1 = 0.03132	0.2144 ± 0.0004
298.15 K, c1 = 0.03333	0.2207 ± 0.0004
298.15 K, c1 = 0.03529	0.2269 ± 0.0005
298.15 K, c1 = 0.03721	0.2337 ± 0.0005
298.15 K, c1 = 0.03908	0.2394 ± 0.0005
298.15 K, c1 = 0.04091	0.2452 ± 0.0005
298.15 K, c1 = 0.0427	0.251 ± 0.0005
298.15 K, c1 = 0.04444	0.2558 ± 0.0005
298.15 K, c1 = 0.04699	0.2635 ± 0.0005
298.15 K, c1 = 0.04946	0.2721 ± 0.0005
298.15 K, c1 = 0.05185	0.2798 ± 0.0006
298.15 K, c1 = 0.05417	0.2856 ± 0.0006
298.15 K, c1 = 0.05641	0.2923 ± 0.0006
303.15 K, c1 = 0.002632	0.0264 ± 0.0001
303.15 K, c1 = 0.005195	0.0503 ± 0.0001
303.15 K, c1 = 0.007692	0.0726 ± 0.0002
303.15 K, c1 = 0.01013	0.0937 ± 0.0002
303.15 K, c1 = 0.0125	0.1137 ± 0.0002
303.15 K, c1 = 0.01481	0.1325 ± 0.0003
303.15 K, c1 = 0.01707	0.1505 ± 0.0003
303.15 K, c1 = 0.01928	0.1679 ± 0.0003
303.15 K, c1 = 0.02143	0.1833 ± 0.0004
303.15 K, c1 = 0.02353	0.1983 ± 0.0004
303.15 K, c1 = 0.02558	0.2125 ± 0.0004
303.15 K, c1 = 0.02759	0.221 ± 0.0004
303.15 K, c1 = 0.02955	0.229 ± 0.0005
303.15 K, c1 = 0.03146	0.236 ± 0.0005
303.15 K, c1 = 0.03333	0.243 ± 0.0005
303.15 K, c1 = 0.03516	0.2495 ± 0.0005
303.15 K, c1 = 0.03696	0.256 ± 0.0005
303.15 K, c1 = 0.03957	0.2645 ± 0.0005
303.15 K, c1 = 0.04211	0.273 ± 0.0005
303.15 K, c1 = 0.04456	0.281 ± 0.0006
303.15 K, c1 = 0.04694	0.289 ± 0.0006
303.15 K, c1 = 0.05	0.299 ± 0.0006
303.15 K, c1 = 0.05294	0.309 ± 0.0006
303.15 K, c1 = 0.05577	0.3185 ± 0.0006
308.15 K, c1 = 0.002632	0.0291 ± 0.0001
308.15 K, c1 = 0.005195	0.0556 ± 0.0001
308.15 K, c1 = 0.007692	0.0802 ± 0.0002
308.15 K, c1 = 0.01013	0.1034 ± 0.0002
308.15 K, c1 = 0.0125	0.1244 ± 0.0003
308.15 K, c1 = 0.01481	0.1452 ± 0.0003
308.15 K, c1 = 0.01707	0.165 ± 0.0003
308.15 K, c1 = 0.01928	0.1844 ± 0.0004
308.15 K, c1 = 0.02143	0.203 ± 0.0004
308.15 K, c1 = 0.02353	0.22 ± 0.0004
308.15 K, c1 = 0.02558	0.232 ± 0.0005
308.15 K, c1 = 0.02759	0.242 ± 0.0005
308.15 K, c1 = 0.02955	0.251 ± 0.0005
308.15 K, c1 = 0.03146	0.259 ± 0.0005
308.15 K, c1 = 0.03333	0.267 ± 0.0005
308.15 K, c1 = 0.03516	0.274 ± 0.0006
308.15 K, c1 = 0.03696	0.281 ± 0.0006
308.15 K, c1 = 0.03957	0.291 ± 0.0006
308.15 K, c1 = 0.04211	0.301 ± 0.0006
308.15 K, c1 = 0.04456	0.3105 ± 0.0006
308.15 K, c1 = 0.04772	0.322 ± 0.0006
308.15 K, c1 = 0.05075	0.333 ± 0.0007
308.15 K, c1 = 0.05366	0.344 ± 0.0007
313.15 K, c1 = 0.002632	0.0318 ± 0.0001
313.15 K, c1 = 0.005195	0.0606 ± 0.0001
313.15 K, c1 = 0.007692	0.0875 ± 0.0002
313.15 K, c1 = 0.01013	0.1126 ± 0.0002
313.15 K, c1 = 0.0125	0.1364 ± 0.0003
313.15 K, c1 = 0.01481	0.1592 ± 0.0003
313.15 K, c1 = 0.01707	0.1811 ± 0.0004
313.15 K, c1 = 0.01928	0.2025 ± 0.0004
313.15 K, c1 = 0.02143	0.223 ± 0.0004
313.15 K, c1 = 0.02353	0.241 ± 0.0005
313.15 K, c1 = 0.02558	0.256 ± 0.0005
313.15 K, c1 = 0.02759	0.267 ± 0.0005
313.15 K, c1 = 0.02955	0.277 ± 0.0006
313.15 K, c1 = 0.03146	0.286 ± 0.0006
313.15 K, c1 = 0.03333	0.295 ± 0.0006
313.15 K, c1 = 0.03516	0.303 ± 0.0006
313.15 K, c1 = 0.03696	0.311 ± 0.0006
313.15 K, c1 = 0.03957	0.322 ± 0.0006
313.15 K, c1 = 0.04211	0.333 ± 0.0007
313.15 K, c1 = 0.04456	0.344 ± 0.0007
313.15 K, c1 = 0.04694	0.354 ± 0.0007
313.15 K, c1 = 0.05	0.367 ± 0.0007
313.15 K, c1 = 0.05294	0.38 ± 0.0008
318.15 K, c1 = 0.002632	0.0344 ± 0.0001
318.15 K, c1 = 0.005195	0.0656 ± 0.0001
318.15 K, c1 = 0.007692	0.0948 ± 0.0002
318.15 K, c1 = 0.01013	0.1225 ± 0.0003
318.15 K, c1 = 0.0125	0.1474 ± 0.0003
318.15 K, c1 = 0.01481	0.1726 ± 0.0003
318.15 K, c1 = 0.01707	0.1968 ± 0.0004
318.15 K, c1 = 0.01928	0.219 ± 0.0004
318.15 K, c1 = 0.02143	0.241 ± 0.0005
318.15 K, c1 = 0.02353	0.262 ± 0.0005
318.15 K, c1 = 0.02558	0.279 ± 0.0006
318.15 K, c1 = 0.02759	0.292 ± 0.0006
318.15 K, c1 = 0.02955	0.303 ± 0.0006
318.15 K, c1 = 0.03146	0.313 ± 0.0006
318.15 K, c1 = 0.03333	0.323 ± 0.0006
318.15 K, c1 = 0.03516	0.3325 ± 0.0007
318.15 K, c1 = 0.03696	0.3415 ± 0.0007
318.15 K, c1 = 0.03957	0.3535 ± 0.0007
318.15 K, c1 = 0.04211	0.3655 ± 0.0007
318.15 K, c1 = 0.04456	0.377 ± 0.0008
318.15 K, c1 = 0.04772	0.3915 ± 0.0008
318.15 K, c1 = 0.05074	0.4055 ± 0.0008
318.15 K, c1 = 0.05366	0.419 ± 0.0008
